Values of other authors in patent publication US12622943B2, “Composition for relieving woman menopausal symptom comprising a mixed extract of hop and citrus peel and method for treating or alleviating menopausal symptom using the same” (LG HOUSEHOLD & HEALTH CARE LTD., priority 2022, dated 2026).

Tested on: uterine weight
Conditions: administered to animals at high doses

uterine weight: increased
Structure (SMILES): CC(C)=CCc1c(O)cc(O)c2c1O[C@H](c1ccc(O)cc1)CC2=O [8-Prenylnaringenin]
